Laboratory results from the supplement of paper PMC10883282.
± gives the standard deviation of the averaged measurements.

What was measured:
Assay in all cases: relative viability vs DMSO control (72 h) (fraction); higher = more viable cells
[1] = tested on: SW872
In short: (§1)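 Serially diluted compound, 2.5 µl from source plates spanning 10 mM to 0.0002 mM, was added 24 h after sarcoma cell lines were seeded in 384-well plates at densities targeting 80–90% confluence. Plates then sat 72 h at 37 °C, 5% CO2, with 0.1% DMSO vehicle and a 5 µM positive control. Relative viability came from ATPLite as percent growth, averaged over up to triplicate wells, and was rescaled with 1 as full and 0 as none.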

[2] = tested on: VA-ES-BJ
In short: as §1

[3] = tested on: G401
In short: as §1

[4] = tested on: KHOS-NP
In short: as §1

[5] = tested on: SK-LMS-1
In short: as §1

[6] = tested on: SW684
In short: as §1

[7] = tested on: SW982
In short: as §1

[8] = tested on: RD-ES
In short: as §1

[9] = tested on: A204
In short: as §1

[10] = tested on: SK-ES-1
In short: as §1

[11] = tested on: HS729
In short: as §1

[12] = tested on: HT1080
In short: as §1

`O=C(Nc1nc2cccc(-c3ccc(CN4CCS(=O)(=O)CC4)cc3)n2n1)C1CC1` [Filgotinib] was tested, and the relative viability ([1]; 0.00017 µM) was 1.07 ± 0.021, the relative viability ([1]; 0.00051 µM) was 1.02 ± 0.015 and the relative viability ([1]; 0.00152 µM) was 1.05 ± 0.021. For the same compound, the relative viability ([1]; 0.00457 µM) was 1.03 ± 0.024, the relative viability ([1]; 0.01372 µM) was 1.04 ± 0.025 and the relative viability ([1]; 0.04115 µM) was 1.01 ± 0.031. For the same compound, the relative viability ([1]; 0.1235 µM) was 1.02 ± 0.047, the relative viability ([1]; 0.3704 µM) was 1.02 ± 0.037 and the relative viability ([1]; 1.111 µM) was 1.03 ± 0.043. For the same compound, the relative viability ([1]; 3.333 µM) was 1.02 ± 0.044, the relative viability ([1]; 10 µM) was 0.933 ± 0.098 and the relative viability ([2]; 0.00017 µM) was 1.05 ± 0.018. For the same compound, the relative viability ([2]; 0.00051 µM) was 1.05 ± 0.053, the relative viability ([2]; 0.00152 µM) was 1.05 ± 0.021 and the relative viability ([2]; 0.00457 µM) was 1.01 ± 0.022. The relative viability ([2]; 0.01372 µM) was 1.01 ± 0.013, the relative viability ([2]; 0.04115 µM) was 0.997 ± 0.011 and the relative viability ([2]; 0.1235 µM) was 1.01 ± 0.032. The relative viability ([2]; 0.3704 µM) was 1.01 ± 0.023, the relative viability ([2]; 1.111 µM) was 0.976 ± 0.017 and the relative viability ([2]; 3.333 µM) was 0.954 ± 0.016. It also gave a relative viability ([2]; 10 µM) of 0.851 ± 0.014, a relative viability ([3]; 0.00017 µM) of 0.988 ± 0.026 and a relative viability ([3]; 0.00051 µM) of 1.04 ± 0.059. For the same compound, the relative viability ([3]; 0.00152 µM) was 1.027 ± 0.01, the relative viability ([3]; 0.00457 µM) was 1.03 ± 0.033 and the relative viability ([3]; 0.01372 µM) was 1.01 ± 0.036. It also gave a relative viability ([3]; 0.04115 µM) of 0.995 ± 0.016, a relative viability ([3]; 0.1235 µM) of 1.04 ± 0.02 and a relative viability ([3]; 0.3704 µM) of 1.01 ± 0.017. For the same compound, the relative viability ([3]; 1.111 µM) was 1.03 ± 0.048, the relative viability ([3]; 3.333 µM) was 1.01 ± 0.043 and the relative viability ([3]; 10 µM) was 0.911 ± 0.059. For the same compound, the relative viability ([4]; 0.00017 µM) was 1.09 ± 0.019, the relative viability ([4]; 0.00051 µM) was 1.12 ± 0.015 and the relative viability ([4]; 0.00152 µM) was 1.1 ± 0.037. It also gave a relative viability ([4]; 0.00457 µM) of 1.101 ± 0.011, a relative viability ([4]; 0.01372 µM) of 1.1 ± 0.027 and a relative viability ([4]; 0.04115 µM) of 1.1 ± 0.03. It also gave a relative viability ([4]; 0.1235 µM) of 1.085 ± 0.0096, a relative viability ([4]; 0.3704 µM) of 1.085 ± 0.0076 and a relative viability ([4]; 1.111 µM) of 1.08 ± 0.043. It also gave a relative viability ([4]; 3.333 µM) of 1.1 ± 0.027, a relative viability ([4]; 10 µM) of 1.09 ± 0.069 and a relative viability ([5]; 0.00017 µM) of 1.06 ± 0.012. It also gave a relative viability ([5]; 0.00051 µM) of 1.08 ± 0.025, a relative viability ([5]; 0.00152 µM) of 1.06 ± 0.033 and a relative viability ([5]; 0.00457 µM) of 1.06 ± 0.032. For the same compound, the relative viability ([5]; 0.01372 µM) was 1.06 ± 0.021, the relative viability ([5]; 0.04115 µM) was 1.08 ± 0.037 and the relative viability ([5]; 0.1235 µM) was 1.05 ± 0.036. For the same compound, the relative viability ([5]; 0.3704 µM) was 1.05 ± 0.074, the relative viability ([5]; 1.111 µM) was 1.04 ± 0.055 and the relative viability ([5]; 3.333 µM) was 1.02 ± 0.083. It also gave a relative viability ([5]; 10 µM) of 0.866 ± 0.013, a relative viability ([6]; 0.00017 µM) of 1.13 ± 0.044 and a relative viability ([6]; 0.00051 µM) of 1.19 ± 0.031. It also gave a relative viability ([6]; 0.00152 µM) of 1.211 ± 0.0088, a relative viability ([6]; 0.00457 µM) of 1.19 ± 0.083 and a relative viability ([6]; 0.01372 µM) of 1.16 ± 0.036. The relative viability ([6]; 0.04115 µM) was 1.19 ± 0.037, the relative viability ([6]; 0.1235 µM) was 1.18 ± 0.012 and the relative viability ([6]; 0.3704 µM) was 1.19 ± 0.017. The relative viability ([6]; 1.111 µM) was 1.18 ± 0.05, the relative viability ([6]; 3.333 µM) was 1.16 ± 0.077 and the relative viability ([6]; 10 µM) was 1.09 ± 0.02. The relative viability ([7]; 0.00017 µM) was 1 ± 0.025, the relative viability ([7]; 0.00051 µM) was 1.04 ± 0.028 and the relative viability ([7]; 0.00152 µM) was 1.06 ± 0.04. For the same compound, the relative viability ([7]; 0.00457 µM) was 1.08 ± 0.03, the relative viability ([7]; 0.01372 µM) was 1.05 ± 0.012 and the relative viability ([7]; 0.04115 µM) was 1.06 ± 0.012. It also gave a relative viability ([7]; 0.1235 µM) of 1.02 ± 0.031, a relative viability ([7]; 0.3704 µM) of 1.06 ± 0.013 and a relative viability ([7]; 1.111 µM) of 1.02 ± 0.023. The relative viability ([7]; 3.333 µM) was 1.06 ± 0.024, the relative viability ([7]; 10 µM) was 0.939 ± 0.071 and the relative viability ([8]; 0.00017 µM) was 0.932 ± 0.05. For the same compound, the relative viability ([8]; 0.00051 µM) was 0.886 ± 0.03, the relative viability ([8]; 0.00152 µM) was 0.957 ± 0.033 and the relative viability ([8]; 0.00457 µM) was 0.946 ± 0.0095. The relative viability ([8]; 0.01372 µM) was 0.928 ± 0.022, the relative viability ([8]; 0.04115 µM) was 0.944 ± 0.014 and the relative viability ([8]; 0.1235 µM) was 0.949 ± 0.02. It also gave a relative viability ([8]; 0.3704 µM) of 0.957 ± 0.014, a relative viability ([8]; 1.111 µM) of 0.978 ± 0.037 and a relative viability ([8]; 3.333 µM) of 0.924 ± 0.043. The relative viability ([8]; 10 µM) was 0.925 ± 0.013, the relative viability ([9]; 0.00017 µM) was 1.09 ± 0.012 and the relative viability ([9]; 0.00051 µM) was 1.15 ± 0.026. The relative viability ([9]; 0.00152 µM) was 1.07 ± 0.02, the relative viability ([9]; 0.00457 µM) was 1.068 ± 0.01 and the relative viability ([9]; 0.01372 µM) was 1.06 ± 0.075. For the same compound, the relative viability ([9]; 0.04115 µM) was 1.14 ± 0.04, the relative viability ([9]; 0.1235 µM) was 1.13 ± 0.067 and the relative viability ([9]; 0.3704 µM) was 1.1 ± 0.061. It also gave a relative viability ([9]; 1.111 µM) of 1.12 ± 0.029, a relative viability ([9]; 3.333 µM) of 1.14 ± 0.059 and a relative viability ([9]; 10 µM) of 0.974 ± 0.1. For the same compound, the relative viability ([10]; 0.00017 µM) was 1.02 ± 0.044, the relative viability ([10]; 0.00051 µM) was 1.06 ± 0.038 and the relative viability ([10]; 0.00152 µM) was 1.07 ± 0.046. It also gave a relative viability ([10]; 0.00457 µM) of 1.04 ± 0.017, a relative viability ([10]; 0.01372 µM) of 1.06 ± 0.083 and a relative viability ([10]; 0.04115 µM) of 1.07 ± 0.037. For the same compound, the relative viability ([10]; 0.1235 µM) was 1.04 ± 0.039, the relative viability ([10]; 0.3704 µM) was 1.03 ± 0.037 and the relative viability ([10]; 1.111 µM) was 1 ± 0.042. It also gave a relative viability ([10]; 3.333 µM) of 1.05 ± 0.035, a relative viability ([10]; 10 µM) of 0.8196 ± 0.0029 and a relative viability ([11]; 0.00017 µM) of 1.04 ± 0.034. It also gave a relative viability ([11]; 0.00051 µM) of 0.993 ± 0.058, a relative viability ([11]; 0.00152 µM) of 0.953 ± 0.044 and a relative viability ([11]; 0.00457 µM) of 0.95 ± 0.015. The relative viability ([11]; 0.01372 µM) was 0.938 ± 0.072, the relative viability ([11]; 0.04115 µM) was 0.898 ± 0.031 and the relative viability ([11]; 0.1235 µM) was 0.888 ± 0.06. For the same compound, the relative viability ([11]; 0.3704 µM) was 0.934 ± 0.079, the relative viability ([11]; 1.111 µM) was 0.906 ± 0.11 and the relative viability ([11]; 3.333 µM) was 0.849 ± 0.009. It also gave a relative viability ([11]; 10 µM) of 0.831 ± 0.037, a relative viability ([12]; 0.00017 µM) of 1.11 ± 0.031 and a relative viability ([12]; 0.00051 µM) of 1.127 ± 0.01. The relative viability ([12]; 0.00152 µM) was 1.066 ± 0.0048, the relative viability ([12]; 0.00457 µM) was 1.06 ± 0.012 and the relative viability ([12]; 0.01372 µM) was 1.08 ± 0.011. The relative viability ([12]; 0.04115 µM) was 1.1 ± 0.025, the relative viability ([12]; 0.1235 µM) was 1.08 ± 0.036 and the relative viability ([12]; 0.3704 µM) was 1.12 ± 0.021. For the same compound, the relative viability ([12]; 1.111 µM) was 1.09 ± 0.085, the relative viability ([12]; 3.333 µM) was 1.13 ± 0.097 and the relative viability ([12]; 10 µM) was 1.12 ± 0.021.
